Reference: patent US8105798B2, “Cytoplasmic activity of retinoid X receptor and its regulation by ligands and dimerization” (The Burnham Institute, priority 2003, dated 2012)
“Also recorded” adds a separate entry of the source.

How the values were obtained:
[1] = target: T1, RXRα ligand-binding domain (Homo sapiens, UniProt P19793); experiment: competition binding assay with [3H]9-cis-RA and RXRα ligand-binding domain
T1 construct: made in house; host or cells: E. coli BL21 (pET vector, Novagen)
T1 sequence (P19793 224-462): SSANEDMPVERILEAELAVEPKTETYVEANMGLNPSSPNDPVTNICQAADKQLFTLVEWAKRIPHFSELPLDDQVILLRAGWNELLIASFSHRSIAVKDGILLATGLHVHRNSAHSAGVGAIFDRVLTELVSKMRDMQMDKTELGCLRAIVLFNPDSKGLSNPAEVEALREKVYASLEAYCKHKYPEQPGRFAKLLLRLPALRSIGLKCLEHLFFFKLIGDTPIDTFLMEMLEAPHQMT
Description: FIG. 8 is a dose response analysis illustrating that 15d-PGJ2 binds RXRα with high affinity conducted with 15d-PGJ2 in the competition binding assay. […] After separation of bound from free radioactivity by elution through Sephadex G-25 desalting columns. Bound radioactivity eluted was quantitated by liquid scientillation counting.
Therefore, Inventor investigated the possibility that 15d-PGJ2 bound directly to RXRα […] A dose response analysis (FIG. 8) was conducted with 15d-PGJ2 in the competition binding assay.
LBD expressed in E. coli. […] The reactions were then eluted through a Sephadex G-25 column to separate the bound label from free label and the RXRα LBD-bound label was quantitated by liquid scintillation counting.

[2] = system: CV-1, MGC80-3, HEK293T and HCT116 cells; experiment: apoptosis determined by DAPI staining; assay type: cell-based; conditions: for effect on sulindac sulfide-induced apoptosis: RXRα ligands given with sulindac sulfide
Description: To determine the involvement of RXRα in sulindac sulfide-induced apoptosis of cancer cells, its effect on apoptosis of CV-1 cells (available from American Type Cell Culture, Manassas, Va., as accession number CCL-70) in the absence or presence of RXRα transfection was evaluated. FIG. 13a. RXR was cloned into a pGFP.C2 vector (GenBank Accession #: U19281) according to the procedure of Li et al., Science 289, 1159-1164 (2000). CV-1 cells were transfected with or without RXRα prior to treatment with sulindac sulfide (75.micro.M) for 24 hr. […] Louis, Mo., as catalogue number D9542), and the presence of nuclear fragmentation and/or chromatin condensation is an indicator of apoptosis. […] The requirement of RXRαwas also examined using RXRα siRNA SEQ ID No.: 12 approach. MGC80-3 cells, HEK293T (ATCC, accession number CCL-1573) and HCT116 (ATCC, accession number CCL-247) cell lines were transfected with RXRα siRNA or control siRNA using oligofectamine (from Invitrogen, Corp). Cell samples from each cell line were lysed and the cell extracts were prepared by immunoblotting to determine RXRα expression. Cells transfected with RXR.alpha siRNA or control siRNA were treated with sulindac sulfide (75.micro.M) for 24 hr, and apoptosis was determined by DAPI staining.

RXRα = target: T2, RXRα (Homo sapiens, UniProt P19793); experiment: subcellular localization of RXRα by immunostaining / confocal microscopy; assay type: cell-based; conditions: for nuclear export of GFP fusion with amino acids 348-398 of RXRα: HEK293T cells; for GFP-RXRα association with mitochondria (overlay with Mito-RFP) / GFP-RXRα localization: COS-7 cells, 10^-4 M, 4 hours
T2 sequence (P19793 1-462): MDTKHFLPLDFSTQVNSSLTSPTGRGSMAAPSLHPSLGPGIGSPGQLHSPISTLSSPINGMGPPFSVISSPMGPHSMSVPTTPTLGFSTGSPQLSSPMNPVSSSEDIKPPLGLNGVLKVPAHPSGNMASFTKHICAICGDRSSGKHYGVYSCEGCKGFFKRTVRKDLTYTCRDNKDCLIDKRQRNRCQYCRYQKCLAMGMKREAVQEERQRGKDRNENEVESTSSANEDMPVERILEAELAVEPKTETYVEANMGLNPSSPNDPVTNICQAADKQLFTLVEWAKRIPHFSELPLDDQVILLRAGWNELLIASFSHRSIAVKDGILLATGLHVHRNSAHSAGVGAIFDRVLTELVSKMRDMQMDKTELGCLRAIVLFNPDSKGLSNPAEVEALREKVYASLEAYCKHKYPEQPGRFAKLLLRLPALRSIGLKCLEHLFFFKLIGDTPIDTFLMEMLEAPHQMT
Description: Expression vector for Flag-RXRα was transfected into the indicated cell line. Cells were then treated with 15d-PGJ2 (5.micro.M) for 3 hr, then immunostained with anti-Flag antibody to detect RXRα Flag-RXRα was visualized by confocal microscopy.
(§1) Expression vectors for Flag-RXRα and GFP-TR3 were transfected into PC12 cells alone or together. Cells were then treated with 15d-PGJ2 (5.micro.M) for 3 hr, then immunostained with anti-Flag antibody to detect RXRα Flag-RXRα and GFP-TR3 were visualized by confocal microscopy, and their images merged.
Cos7 cells were transfected with GFP-RXRα and Mito-REP, and treated with or without 10^-4 M indomethacin or diclofenac for 4 hours. The distribution of GFP-RXRα and Mito-REP was visualized by confocal microscopy.
For example, cells such as LNCaP prostate cancer cells are induced to apoptosis using agents such as the phorbol ester, TPA (12-0-tetradecanolphorbol 13-acetate, Cell Signaling Technology Cat. No.: 9905).
For example, heat shock protein 60 (Hsp60) is a mitochondrial specific protein. […] The treated cells are then incubated with a conjugated secondary antibody and visualized using confocal microscopy. In this example, Cy-3 or FITC conjugated secondary antibodies were used for visualizing the sub-cellular localization of RXRα or Hsp60, respectively.
A GFP-RXRα expression vector was transfected into COS-7 cells and GFP-RXRα was expressed.
A fusion protein created by combining GFP and amino acids 348-398 of RXRα, is transfected into HEK293T cells.
To determine the role of 15d-PGJ2 binding on the new RXR pathway, a confocal microscopy analysis was performed to determine subcellular localization of RXRα in the presence or absence of 15d-PGJ2.
(§2) Because RXR heterodimerizes with TR3, Inventor examined the effect of 15d-PGJ2 on TR3 subcellular localization in PC12 phaeochromocytoma cells.
To determine the mechanism of RXRα mediated apoptosis in the presence of sulindac sulfide, Inventors examined the effect of sulindac sulfide on subcellular localization of RXRα

TR3/RXRα heterodimer = target: T3, TR3/RXRα heterodimer (Homo sapiens, UniProt P19793); experiment: gel shift assay (EMSA) of TR3/RXRα heterodimer binding to βRARE; assay type: biochemical
T3 construct: made in house; host or cells: in vitro translation
T3 sequence (P22736 whole entry partner, one chain of several): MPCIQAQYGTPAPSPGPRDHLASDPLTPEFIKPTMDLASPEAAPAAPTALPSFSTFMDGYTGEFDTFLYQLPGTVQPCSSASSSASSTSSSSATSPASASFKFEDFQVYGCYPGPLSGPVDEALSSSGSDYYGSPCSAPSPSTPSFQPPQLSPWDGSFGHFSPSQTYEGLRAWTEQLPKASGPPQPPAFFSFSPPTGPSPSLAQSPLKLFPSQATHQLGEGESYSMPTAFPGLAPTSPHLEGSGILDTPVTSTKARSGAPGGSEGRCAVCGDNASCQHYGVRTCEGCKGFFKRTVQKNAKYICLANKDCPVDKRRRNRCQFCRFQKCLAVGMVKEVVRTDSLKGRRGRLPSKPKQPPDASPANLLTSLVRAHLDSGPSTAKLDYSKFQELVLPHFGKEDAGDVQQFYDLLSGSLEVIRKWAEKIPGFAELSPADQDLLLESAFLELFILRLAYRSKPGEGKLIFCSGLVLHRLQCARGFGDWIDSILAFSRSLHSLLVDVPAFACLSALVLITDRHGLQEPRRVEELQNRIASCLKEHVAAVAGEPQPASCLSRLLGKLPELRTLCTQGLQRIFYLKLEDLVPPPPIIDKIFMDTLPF
Description: In vitro translated RXRα and TR3 were incubated with 15d-PGJ2 (10^-5 M) for 15 min in the absence or presence of anti-TR3 or anti-RXRα antibody. Following a further incubation with ^32P-radiolabelled βRARE, the reactions were analyzed by EMSA.
To study whether 15d-PGJ2 acted on the TR3/RXRα heterodimer to inhibit the heterodimer activity, Inventor investigated whether 15d-PGJ2 affected binding of the TR3/RXRα heterodimer to the beta.RARE by gel shift assay.
RXRα and TR3 proteins are incubated in the absence or presence of a test compound. Following incubation, the mixture is incubated with ^23P-labeled βretinoic acid response element (βRARE), and the binding of the RXRα/TR3 heterodimer is analyzed by the gel-shift assay. […] The enhancement of the heterodimer binding by a compound will indicate that the compound retains the RXRα/TR3 heterodimer in the nucleus and likely induces transcriptional activity of the heterodimer through its induction of RXRα/TR3 heterodimerization at their LBD dimerization interfaces.

RARβ expression = experiment: RARβ protein expression by Western analysis in cancer cells; assay type: cell-based
Description: The indicated cancer cells were treated for 24 h with or without trans-RA (10^-6 M), or 15d-PGJ2 (5.micro.M) or their combination. RARβ protein expression was determined by Western analysis.
The effect of sulindac sulfide on RXR transactivation was investigated for its effect of RARβ induction by all-trans-retinoic acid (tRA), which activates the RA response element (βRARE) in the RARβ promoter through an RAR/RXR heterodimer. […] The βRARE could be also activated by an RXR/PPAR heterodimer. […] Cells were treated for 24 hr with or without with trans-RA (10^-6 M), or SR11237 (10^-6 M), ciglitazone (10.micro.M), sulindac sulfide (100.micro.M) or the indicated combinations. RARβ protein expression was determined by Western analysis.

TR3 = experiment: subcellular localization of TR3 and RXRα/TR3 heterodimer by confocal microscopy; assay type: cell-based
Description: as §1, with “FIG. 10 is a series of confocal microscope images of immunostained PC12 cells illustrating that binding of 15d-PGJ2 to RXRα induces translocation of RXRα homodimer/monomer or TR3/RXRα heterodimer from the nucleus to the cytoplasm. Expression” for “Expression”
In the absence of TPA, both TR3 and RXRα reside mainly in the nucleus. […] (FIG. 2).
as §2
Either TR3 alone, RXRα alone or TR3 and RXRα was transfected into HEK293T cells. Cells were then treated with sulindac sulfide (75.micro.M) for 6 hr. RXR.alpha and TR3 localization was determined by immunostaining, and cells were also stained by DAPI. […] Thus, the effect of sulindac sulfide on the cytoplasmic localization of TR3 depends on RXRα expression, probably due to their heterodimerization. Thus, sulindac sulfide induces nuclear export of RXRα and RXRα/TR3 heterodimer. (FIG. 14b).
The effect of sulindac sulfide on mitochondrial targeting of RXRα and TR3 was determined by treating H460 lung cancer cells with 75 micro.M sulindac sulfide for 6 hours and visualization of the cellular localization of these proteins by immunostaining. A two stage detection system was used having either anti-RXR or anti TR3 as a first stage (Santa Cruz Biotechnology and Abgent, respectively). In the absence of treatment, both RXRα and TR3 were found mainly in the nucleus.

RXRα/IKK interaction = target: T4, RXRα/IKK interaction (Homo sapiens, UniProt P19793); experiment: co-immunoprecipitation assay of RXRα with IKK; assay type: cell-based; conditions: HEK293T cells, HA-IKKγ and Flag-RXRα; BI419 10^-6 M, 15d-PGJ2 5 μM, sulindac sulfide 75 μM, 6 hr
T4 construct: expressed in transfected cells; host or cells: HEK293T, pcDNA3 expression vectors
T4 sequence (Q9Y6K9 whole entry partner, one chain of several): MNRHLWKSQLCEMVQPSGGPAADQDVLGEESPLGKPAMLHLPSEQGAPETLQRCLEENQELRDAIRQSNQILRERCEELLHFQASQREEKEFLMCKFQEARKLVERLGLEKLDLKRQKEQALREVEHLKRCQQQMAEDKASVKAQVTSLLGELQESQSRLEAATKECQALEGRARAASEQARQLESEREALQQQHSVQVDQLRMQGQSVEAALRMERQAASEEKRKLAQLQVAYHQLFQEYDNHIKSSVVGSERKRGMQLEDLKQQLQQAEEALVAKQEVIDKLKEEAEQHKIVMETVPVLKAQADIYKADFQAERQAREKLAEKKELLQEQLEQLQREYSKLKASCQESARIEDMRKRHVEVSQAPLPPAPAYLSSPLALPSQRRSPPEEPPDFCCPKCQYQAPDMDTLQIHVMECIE
T4 sequence (O14920 whole entry partner, one chain of several): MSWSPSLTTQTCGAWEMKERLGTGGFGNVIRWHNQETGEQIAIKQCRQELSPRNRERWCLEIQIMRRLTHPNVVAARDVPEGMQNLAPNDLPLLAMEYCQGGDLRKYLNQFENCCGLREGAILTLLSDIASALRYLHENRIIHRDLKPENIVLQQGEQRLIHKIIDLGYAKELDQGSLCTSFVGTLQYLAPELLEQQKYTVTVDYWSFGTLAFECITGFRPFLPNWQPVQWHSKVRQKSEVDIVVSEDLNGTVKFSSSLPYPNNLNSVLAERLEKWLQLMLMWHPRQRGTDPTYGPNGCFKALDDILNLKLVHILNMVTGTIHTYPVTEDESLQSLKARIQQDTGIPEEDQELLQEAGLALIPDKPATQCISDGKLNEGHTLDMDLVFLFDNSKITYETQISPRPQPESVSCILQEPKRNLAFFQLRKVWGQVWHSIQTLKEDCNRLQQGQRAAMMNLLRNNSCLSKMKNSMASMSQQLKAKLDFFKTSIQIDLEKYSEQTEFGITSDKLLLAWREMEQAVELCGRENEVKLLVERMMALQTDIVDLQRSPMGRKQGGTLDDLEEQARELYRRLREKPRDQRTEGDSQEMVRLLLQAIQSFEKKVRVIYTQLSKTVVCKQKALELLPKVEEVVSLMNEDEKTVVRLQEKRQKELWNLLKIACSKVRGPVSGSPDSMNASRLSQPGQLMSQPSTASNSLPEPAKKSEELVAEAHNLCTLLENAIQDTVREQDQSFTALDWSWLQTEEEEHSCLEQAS
Text: IKK is composed of three subunits: IKKα and IKKβ, the catalytic subunits, and IKKγ, a regulatory subunit. IKK activation is required for NF-kB activation through its phosphorylation and degradation of IkB in response to proinflammatory stimuli. In addition, IKK also regulates cellular processes in a NF-kB-independent manner. We examined whether sulindac sulfide-induced cytoplasmic RXRα could interact with IKK. The indicated expression vector (pcDNA3 from Invitrogen, Corp) was transfected into HEK293T cells alone or together. After transfection, cells were treated with sulindac sulfide (75.micro.M) for 6 hr, and the interaction of RXRα and IKKβ was analyzed by co-immunoprecipitation assay. […] (FIG. 17a). The interaction was also illustrated by their cytoplasmic co-localization in cells treated with sulindac sulfide. (FIG. 17b). […] In this example, H460 cells were treated with or without sulindac sulfide (75.micro.M) for 6 hr, and cells were stained for RXRα and IKKβ (FIG. 17c). […] HA-IKKγ and Flag-RXRα expression vectors were transfected into HEK293T cells alone or together. After transfection, cells were treated with a new retinoid (BI419 (10^-6 M), 15d-PGJ2 (5.micro.M), or sulindac sulfide (75.micro.M) for 6 hr. The interaction of RXRα and IKKγ was studied by co-immunoprecipitation assay.

## CC1=C(CC(=O)O)c2cc(F)ccc2/C1=C\c1ccc([S+](C)[O-])cc1 (stereo not drawn) [sulindac]
[1]
  IC50: ~100 µM
[2]; CV-1 cells, 75 μM, 24 hr, DAPI staining
  apoptosis, cells without RXRα transfection: little inducing effect

## CCC(=C/[C@H](C)C/C=C/C(C)=C/[C@@H](C)C(=O)[C@@H](C)[C@H](O)[C@@H](C)C/C(C)=C/C(=O)O)/C=C/[C@@H]1OC(=O)C=C[C@@H]1C [leptomycin-B]
RXRα
  nuclear export of GFP fusion with amino acids 348-398 of RXRα: inhibited

## CC1(C)CCC(C)(C)c2cc(C3(c4ccc(C(=O)O)cc4)OCCO3)ccc21 [SR11237]
[2]
  effect on sulindac sulfide-induced apoptosis: inhibitory effect

## COc1ccc2c(c1)c(CC(=O)O)c(C)n2C(=O)c1ccc(Cl)cc1 [indomethacin]
RXRα
  GFP-RXRα association with mitochondria (overlay with Mito-RFP): associated with mitochondria
  GFP-RXRα localization: capable of inducing the migration; also recorded: found in the cytoplasm

## CCCCC/C=C/C=C1/C(=O)C=C[C@@H]1C/C=C\CCCC(=O)O [15d-PGJ2, 15-Deoxy-.delta^12,14-prostaglandin J2]
[1]; read-out: Ki, displacement of [3H]9-cis-RA binding to the RXR ligand-binding domain, 10 nM [3H]9-cis-RA, bacterially purified RXRα LBD
  Ki: 1.8 µM
TR3/RXRα heterodimer; 10^-5 M, 15 min, in vitro translated RXRα and TR3, EMSA
  binding of TR3/RXRα heterodimer to βRARE: completely abolished
TR3/RXRα heterodimer; stated for positive/negative control, no concentration
  binding of RXRα/TR3 heterodimer to DNA (βRARE), as control in gel-shift screening: abolishes the heterodimer binding
RARβ expression; Calu-6 lung and ZR75-1 breast cancer cells, 15d-PGJ2 5 μM, trans-RA 10^-6 M, 24 h
  induction of RARβ expression by trans-RA: potently inhibited
RARβ expression; used together with RXR ligands
  RARβ expression in combination with RXR ligands: failed to induce
RXRα; H460 lung cancer or SY5Y neuroblastoma cells, 5 μM, 3 hr
  transfected Flag-RXRα localization: significant amount of RXRα was found in the cytoplasm
RXRα; PC12 cells, 5 μM, 3 hr
  Flag-RXRα localization: migrated from the nucleus to the cytoplasm
RXRα; no conditions given
  RXRα nuclear export: induce RXRα nuclear export
TR3; PC12 cells, 5 μM, 3 hr
  GFP-TR3 localization, cotransfected with Flag-RXRα: found in the cytoplasm
  GFP-TR3 migration to the cytoplasm, TR3 transfected alone: did not
RXRα/IKK interaction
  interaction of RXRα with IKKγ: further promoted

## CC1=C(/C=C/C(C)=C\C=C\C(C)=C\C(=O)O)C(C)(C)CCC1 [9-cis-RA]
[2]
  effect on sulindac sulfide-induced apoptosis: inhibitory effect

## O=C(O)Cc1ccccc1Nc1c(Cl)cccc1Cl [diclofenac]
RXRα
  GFP-RXRα association with mitochondria (overlay with Mito-RFP): associated with mitochondria
  GFP-RXRα localization: capable of inducing the migration; also recorded: found in the cytoplasm

## CCCCCCCCCCCCCC(=O)O[C@@H]1[C@@H](C)[C@@]2(O)[C@@H](C=C(CO)C[C@]3(O)C(=O)C(C)=C[C@@H]23)[C@H]2C(C)(C)[C@]12OC(C)=O [TPA, 12-0-tetradecanolphorbol 13-acetate]
RXRα
  nuclear export of GFP fusion with amino acids 348-398 of RXRα: causes the fusion protein to export from the nucleus
RXRα; LNCaP cells treated with TPA
  RXRα association with mitochondria (overlay with Hsp60): associates with mitochondria
RXRα; LNCaP prostate cancer cells, endogenous RXRα, TPA treatment
  RXRα localization: found in the cytoplasm
TR3; LNCaP cells treated with TPA
  TR3 and RXRα localization: co-localize to the cytoplasm
